Broadly, the IC50 is the midpoint of a concentration-inhibition curve.

The subject of one assay is Human primary T cells. In words: IL-2 ELISA, human primary T cell, anti-CD3+CD28+ (whole cell assay). Type of assay: cell-based. The note with it: Homo sapiens, T-cell, 24 h, human primary T cells stimulated with anti-CD3 + anti-CD28, 24 hours. Summed up: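 IL-2 secreted over 24 h at 37° C was quantified by ELISA after plate-bound αCD3 (1 μg/ml) and αCD28 (5 μg/ml) stimulation, or PMA (0.5 ng/ml) with ionomycin (0.1 μM) as counter-screen. Cells were IL-2-starved primary human T cells, expanded from volunteer PBMC and exposed to compound for 1 hr beforehand.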
Background: In an ELISA, binding on a coated surface is turned into a signal by an enzyme label.
On to `CC1(C)CC(Nc2nc(Nc3ccc(OC4CCOCC4)c(F)c3)ncc2F)CC(C)(C)N1` [III-109, 5-fluoro-N2-(3-fluoro-4-(tetrahydro-2H-pyran-4-yloxy)phenyl)-N4-(2,2,6,6-tetramethylpiperidin-4-yl)pyrimidine-2,4-diamine], for which the IC50 was 500 to 1000 nM.

Regarding `Cc1ccc(C)n1-c1cc(Nc2ncc(F)c(NC3CC(C)(C)NC(C)(C)C3)n2)cnc1OC(C)C` [Compound I-116, 5-fluoro-N2-(6-isopropoxy-5-(2,5-dimethyl-1H-pyrrol-1-yl)pyridin-3-yl)-N4-(2,2,6,6-tetramethylpiperidin-4-yl)pyrimidine-2,4-diamine], the IC50 fell in the range of 500 to 1000 nM.

Turning to `CN1C(C)(C)CC(Nc2nc(Nc3ccc4c(c3)OCC(C(=O)N3CCOCC3)O4)ncc2F)CC1(C)C` (centres unmarked) [II-2, (6-(4-(1,2,2,6,6-pentamethylpiperidin-4-ylamino)-5-fluoropyrimidin-2-ylamino)-2,3-dihydrobenzo[b][1,4]dioxin-2-yl)(morpholino)methanone], the IC50 was more than 1000 nM.

`CN1C(C)(C)CC(Nc2nc(Nc3ccc(Oc4ccncc4)c(C(F)(F)F)c3)ncc2F)CC1(C)C` [Compound I-62, 5-fluoro-N2-(3-(trifluoromethyl)-4-(pyridin-4-yloxy)phenyl)-N4-(1,2,2,6,6-pentamethylpiperidin-4-yl)pyrimidine-2,4-diamine]: the half-maximal inhibitory concentration (IC50) was more than 1000 nM.

As for `CN1C(C)(C)CC(Nc2nc(Nc3cc(F)cc(OCCN4CCCC4=O)c3)ncc2F)CC1(C)C` [Compound I-38, 1-(2-(3-(4-(1,2,2,6,6-pentamethylpiperidin-4-ylamino)-5-fluoropyrimidin-2-ylamino)-5-fluorophenoxy)ethyl)pyrrolidin-2-one], the IC50 was 500 to 1000 nM.

As for `CC(=O)N1CCCC(Oc2ccc(Nc3ncc(F)c(NC4CC(C)(C)NC(C)(C)C4)n3)cc2OC(F)F)CC1` (centres unmarked) [III-42, 1-(4-(2-(difluoromethoxy)-4-(5-fluoro-4-(2,2,6,6-tetramethylpiperidin-4-ylamino)pyrimidin-2-ylamino)phenoxy)azepan-1-yl)ethanone], the IC50 fell in the range of 500 to 1000 nM.

In the case of `CN1C(C)(C)CC(Nc2nc(Nc3ccc(OC(C)(C)CCN4CCCC4)c(F)c3)ncc2F)CC1(C)C` [III-47, 5-fluoro-N2-(3-fluoro-4-(2-methyl-4-(pyrrolidin-1-yl)butan-2-yloxy)phenyl)-N4-(1,2,2,6,6-pentamethylpiperidin-4-yl)pyrimidine-2,4-diamine], the IC50 is 500 to 1000 nM.

`COCCn1nnnc1-c1cc(Nc2ncc(F)c(NC3CC(C)(C)N(C)C(C)(C)C3)n2)ccc1F` [III-128, 5-fluoro-N2-(4-fluoro-3-(1-(2-methoxyethyl)-1H-tetrazol-5-yl)phenyl)-N4-(1,2,2,6,6-pentamethylpiperidin-4-yl)pyrimidine-2,4-diamine]: the IC50 was 250 to 500 nM.

Regarding `CC(C)N1CC[C@@H](Oc2ccc(Nc3ncc(F)c(NC4CC(C)(C)NC(C)(C)C4)n3)cc2OC(F)F)C1` [Compound I-146, N2-(4-((R)-1-isopropylpyrrolidin-3-yloxy)-3-(difluoromethoxy)phenyl)-5-fluoro-N4-(2,2,6,6-tetramethylpiperidin-4-yl)pyrimidine-2,4-diamine], the IC50 was 250 to 500 nM.

Take `CN1C(C)(C)CC(Nc2nc(Nc3ccc(OC4CCN(CCF)CC4)c(OC(F)F)c3)ncc2F)CC1(C)C` [III-51, N2-(3-(difluoromethoxy)-4-(1-(2-fluoroethyl)piperidin-4-yloxy)phenyl)-5-fluoro-N4-(1,2,2,6,6-pentamethylpiperidin-4-yl)pyrimidine-2,4-diamine]: the half-inhibitory concentration (IC50) was less than 250 nM.

The assay is the same for the next values; noted with them: human primary T cells stimulated with anti-CD3 + anti-CD28, 24 hours.
Take `CC1(C)CC(Nc2nc(Nc3cccc(-c4nnnn4CCF)c3)ncc2C#N)CC(C)(C)N1` [Compound I-97, 5-Cyano-N2-{3-[1-N-(2-fluoroethyl)-(tetrazol-5-yl)]}phenyl-N4-(2,2,6,6-tetramethylpiperidin-4-yl)-2,4-pyrimidinediamine]: the concentration for half-maximal inhibition (IC50) was more than 1000 nM.

The values are drawn from patent US9149475B2, “Protein kinase C inhibitors and uses thereof” (Rigel Pharmaceuticals, Inc., priority 2009, dated 2015).
